Test results published in US20240261296A1, “THERAPEUTIC MODALITIES FOR INHIBITING PANCREATIC BETA CELL IMPAIRMENT AND TREATING DIABETES” (Hadasit Medical Research Serices & Development Ltd., priority 2021, published 2024).
Entries after “also recorded” stand apart in the source; their conditions may differ.

Experiments:
Assay type in all cases: in vivo
db/db mice = test: intraperitoneal glucose tolerance test (IPGTT)
Protocol: Lepr^db/db homozygotes (db/db) and heterozygote Lepr^db/+ (wild type) mice were treated daily with 2.5 mg/kg/day oral administration of the Vehicle, the commercial EP3 antagonist L-798106 and the compounds C5 and C13 for 8 weeks, as described in Example 9. A glucose tolerance test (Intraperitoneal glucose tolerance test, IPGTT) was performed following four weeks and eight weeks of the onset of treatment, as follows. Glucose (1 g/kg) was injected following 8 hours of fasting, and blood glucose was measured at baseline and at 30-, 60-, 90- and 120-minutes post glucose administration.
Heterozygote (wild type) and diabetic db/db mice were treated daily with the Vehicle, L-798106 and the compounds C17 and C20 for 8 weeks, essentially as described in Example 9. A glucose tolerance test (IPGTT) was performed essentially as described in Example 10.

[1] = lipid parameters in sera of db/db mice; settings: 8 weeks of treatment; for blood triglyceride levels: vs vehicle
Protocol: At the end of the 8 week-long period of treatment as described in Example 9, mice were sacrificed and blood samples were collected, and analyzed for different parameters as detailed below.
Lipid parameters in sera. Mice lipid profiles were assessed by measuring triglycerides and total cholesterol levels in the sera of the treated mice. The results for the triglycerides and cholesterol levels in db/db mice are presented in FIGS. 24A-24B respectively, in which, each treatment is graphically represented as described in Example 9, for each group n=5, data is presented ±SEM. Statistical analysis between each treated-group compared to vehicle was performed p-value for C5=0.06, for C13=0.02 and p >0.05 for the rest of the tests.

[2] = blood insulin levels in C57Bl/6 mice (ELISA)
Protocol: B. For measurements of blood insulin levels, insulin was measured in blood obtained from the vein tail of C57Bl/6 mice (n=8/group) 24 h (t24) after the third gavage with vehicle (Control-Saline); 3 mg/kg/day Compound C5; Compound C13 or the EP3 antagonist L-798106 (total 9 mg/kg) using ELISA mouse insulin kit (Mercodia). Five samples randomly chosen from each group were measured.
B. Blood insulin levels: Insulin was measured in sera obtained from mice injected with either Saline/DMSO (control), Compound 5 (C5); Compound C13 (C13) or L-798106, using ELISA mouse insulin kit according to the manufacturer's instructions (Mercodia). Five samples randomly chosen from each group were measured. […] Similarly, to normal blood glucose, the mice keep their blood insulin concentrations within the normal range.

[3] = kidney function parameters in sera of C57Bl/6 mice
Protocol: Blood was collected by cardiac puncture, and 50 μl were collected in EDTA containing tubes for cell blood count (CBC). Further, 200-300 μl of blood was centrifuged and serum was collected for biochemical analysis.
D. Effects of orally administered compounds on kidney function parameters: Creatinine and Urea levels were measured in the sera obtained from mice 24 h after the third gavage with saline/DMSO (Control Saline); 3 mg/kg/day Compound C5; Compound C13 or the EP3 antagonist L-798106. […] 12 B for Urea.
D. Kidney function parameters: Creatinine (FIG. 15A) and Urea (FIG. 15B) were measured in sera obtained from mice, 24 h after injection of either Saline/DMSO (Control Saline), Compound C5 or L-798106.

[4] = glycemia evaluation in C57Bl/6 mice; settings: for blood glucose concentration: IP 3 mg/kg, t0, 5 h, 24 h; for blood glucose concentrations: oral gavage 3 mg/kg/day for 3 days, t0, 5 h after each gavage, 24 h after last
Protocol: Male mice (n=8 per group) were assigned to the following test groups. A dosage of 3 mg/kg/mouse was administered daily for 3 consecutive days in 200 μl of:
Group A: saline and DMSO carrier (referred to throughout the drawings and examples describing the in vivo experiment as “Control-Saline”, “Vehicle”, “Saline” or “Control”), at the equivalent concentration administered the other test groups (2.5%). Group B: Compound 1b (C5) at 3 mg/Kg: (total of 9 mg/Kg). Group C: Compound 1a (C13) at 3 mg/Kg: (total of 9 mg/Kg). Group D: L-798106 at 3 mg/Kg: (total of 9 mg/Kg).
A. For glycemia evaluation, blood glucose was measured from the vein tail at the following time points (t(h)—time in hours): t=0—before gavage; t=5 h—following each gavage on days 1, 2 and 3 (5G1, 5G2 and 5G3, respectively); and t=24 h—after the last gavage (24G3).
A. Glycemia evaluation: Glucose concentration was measured in blood obtained from the vein tail of C57Bl/6 mice (n=12/group). Results are represented in FIGS. 13A-13D, in which, t(h) represents time in hours as follows: before injection (t0), at time 5 h (t5) and 24 h (t24) after injection of 200 μl saline/DMSO (FIG. 13A); of 3 mg/kg of C5 (FIG. 13B); C13 (FIG. 13C); or L-798106 (FIG. 13D), by using Accu-Chek performa glucometer.

[5] = 8 weeks oral 2.5 mg/kg/day, glucose 1 g/kg, all time points, vs vehicle
[6] = oral 3 mg/kg/day (total 9 mg/kg), 24 h after third gavage
[7] = oral 3 mg/kg/day, 24 h after third gavage

SMILES	hyperglycemia in IPGTT, db/db mice (db/db mice; [5])	hyperglycemia in IPGTT, db/db mice (db/db mice; four weeks of treatment)	total cholesterol levels [1]	blood triglyceride levels [1]	blood insulin levels ([2]; IP single dose 3 mg/kg)	blood insulin levels [2, 6]	Creatinine ([3]; IP, 24 h after injection)	Urea ([3]; IP, 24 h after injection)	Creatinine [3, 7]	Urea [3, 7]	blood glucose concentration [4]	blood glucose concentrations [4]	hyperglycemia in IPGTT, db/db mice (db/db mice; 8 weeks oral 2.5 mg/kg/day, glucose 1 g/kg, all time points, vs vehicle, 2.5 mg/kg/day)
CC[C@H](C)c1ccc(S(=O)(=O)Nc2ccccc2C(=O)N2C[C@@H](C)O[C@@H](C)C2)cc1 [Compound C5, 4-((S)-sec-butyl)-N-(2-((2S,6R)-2,6-dimethylmorpholine-4-carbonyl)phenyl)benzenesulfonamide]	significantly alleviated hyperglycemia	reduction of hyperglycemia could already be seen	No effect on total cholesterol levels	significant reduction	no statistically significant differences	no statistically significant differences	no statistically significant differences	no statistically significant differences	No statistically significant differences	No statistically significant differences	no differences were observed	no significant alterations	–
CC[C@@H]1CC[C@H](C)N1C(=O)c1cccc(NS(=O)(=O)c2ccc(C)c(F)c2)c1 [Compound C13, N-(3-((2R,5S)-2-ethyl-5-methylpyrrolidine-1-carbonyl)phenyl)-3-fluoro-4-methylbenzenesulfonamide]	significantly alleviated hyperglycemia	reduction of hyperglycemia could already be seen	No effect on total cholesterol levels	significant reduction	no statistically significant differences	no statistically significant differences	p-value >0.05	p-value >0.05	No statistically significant differences	No statistically significant differences	no differences were observed	no significant alterations	–
COc1ccc(Br)cc1S(=O)(=O)NC(=O)/C=C/c1ccccc1Cc1ccc2ccccc2c1 [Compound L-798106, (2E)-N-[(5-bromo-2-methoxyphenyl)sulfonyl]-3-[2-(2-naphthalenylmethyl)phenyl]-2-propenamide, reference compound]	–	reduction of hyperglycemia could already be seen	No effect on total cholesterol levels	did not exhibit a statistically-significant reduction	no statistically significant differences	no statistically significant differences	no statistically significant differences	no statistically significant differences	No statistically significant differences	No statistically significant differences	no differences were observed	no significant alterations	significantly alleviated hyperglycemia; also recorded: appeared to be statistically more significant
